Reference: ChEMBL document CHEMBL2380264, “Synthesis and antitumor activity of 1,3,4-oxadiazole possessing 1,4-benzodioxan moiety as a novel class of potent methionine aminopeptidase type II inhibitors” (Bioorg Med Chem Lett, 2013)

Experiments:
HUVEC [1] = experiment: Antiproliferative against HUVEC after 48 hrs by MTT assay; settings: Homo sapiens
[2] = Cytotoxicity against HUVEC after 24 hrs by MTT assay; assay type: cell-based; settings: human, HUVEC cells
HUVEC [3] = experiment: Induction of apoptosis in HUVEC assessed as early apoptotic cells at 0.5 uM after 24 hrs by annexin V-FITC/propidium iodide staining-based FACS flow cytometric analysis (reference value: 0.02%); assay type: functional, Homo sapiens
HUVEC [4] = experiment: Induction of apoptosis in HUVEC assessed as dead cells at 4 uM after 24 hrs by annexin V-FITC/propidium iodide staining-based FACS flow cytometric analysis (reference value: 2.82%); assay type: functional, Homo sapiens
HUVEC [5] = experiment: Induction of apoptosis in HUVEC assessed as late apoptotic cells at 2 uM after 24 hrs by annexin V-FITC/propidium iodide staining-based FACS flow cytometric analysis (reference value: 0.09%); assay type: functional, Homo sapiens
HUVEC [6] = experiment: Induction of apoptosis in HUVEC assessed as dead cells at 1 uM after 24 hrs by annexin V-FITC/propidium iodide staining-based FACS flow cytometric analysis (reference value: 2.82%); assay type: functional, Homo sapiens
HUVEC [7] = experiment: Induction of apoptosis in HUVEC assessed as late apoptotic cells at 4 uM after 24 hrs by annexin V-FITC/propidium iodide staining-based FACS flow cytometric analysis (reference value: 0.09%); assay type: functional, Homo sapiens
HUVEC [8] = experiment: Induction of apoptosis in HUVEC assessed as early apoptotic cells at 2 uM after 24 hrs by annexin V-FITC/propidium iodide staining-based FACS flow cytometric analysis (reference value: 0.02%); assay type: functional, Homo sapiens
HUVEC [9] = experiment: Induction of apoptosis in HUVEC assessed as early apoptotic cells at 1 uM after 24 hrs by annexin V-FITC/propidium iodide staining-based FACS flow cytometric analysis (reference value: 0.02%); assay type: functional, Homo sapiens
HUVEC [10] = experiment: Induction of apoptosis in HUVEC assessed as dead cells at 0.5 uM after 24 hrs by annexin V-FITC/propidium iodide staining-based FACS flow cytometric analysis (reference value: 2.82%); assay type: functional, Homo sapiens
HUVEC [11] = experiment: Induction of apoptosis in HUVEC assessed as dead cells at 2 uM after 24 hrs by annexin V-FITC/propidium iodide staining-based FACS flow cytometric analysis (reference value: 2.82%); assay type: functional, Homo sapiens
HUVEC [12] = experiment: Induction of apoptosis in HUVEC assessed as late apoptotic cells at 1 uM after 24 hrs by annexin V-FITC/propidium iodide staining-based FACS flow cytometric analysis (reference value: 0.09%); assay type: functional, Homo sapiens
HUVEC [13] = experiment: Induction of apoptosis in HUVEC assessed as viable cells at 0.5 uM after 24 hrs by annexin V-FITC/propidium iodide staining-based FACS flow cytometric analysis (reference value: 96.26%); assay type: functional; settings: Homo sapiens, read-out: Activity
HUVEC [14] = experiment: Induction of apoptosis in HUVEC assessed as viable cells at 2 uM after 24 hrs by annexin V-FITC/propidium iodide staining-based FACS flow cytometric analysis (reference value: 96.26%); assay type: functional; settings: Homo sapiens, read-out: Activity
HUVEC [15] = experiment: Induction of apoptosis in HUVEC assessed as viable cells at 4 uM after 24 hrs by annexin V-FITC/propidium iodide staining-based FACS flow cytometric analysis (reference value: 96.26%); assay type: functional; settings: Homo sapiens, read-out: Activity
HUVEC [16] = experiment: Induction of apoptosis in HUVEC after 24 hrs by annexin V-FITC/propidium iodide staining-based FACS flow cytometric analysis; assay type: functional, cell-based; settings: Homo sapiens
HUVEC [17] = experiment: Induction of apoptosis in HUVEC assessed as late apoptotic cells at 0.5 uM after 24 hrs by annexin V-FITC/propidium iodide staining-based FACS flow cytometric analysis (reference value: 0.09%); assay type: functional, Homo sapiens
HUVEC [18] = experiment: Induction of apoptosis in HUVEC assessed as early apoptotic cells at 4 uM after 24 hrs by annexin V-FITC/propidium iodide staining-based FACS flow cytometric analysis (reference value: 0.02%); assay type: functional, Homo sapiens
HUVEC [19] = experiment: Induction of apoptosis in HUVEC assessed as viable cells at 1 uM after 24 hrs by annexin V-FITC/propidium iodide staining-based FACS flow cytometric analysis (reference value: 96.26%); assay type: functional; settings: Homo sapiens, read-out: Activity
[20] = target: Methionine aminopeptidase 2 (Homo sapiens, UniProt P50579); experiment: Inhibition of MetAP2 (unknown origin) after 4 hrs
Chain of Methionine aminopeptidase 2 (P50579 whole entry): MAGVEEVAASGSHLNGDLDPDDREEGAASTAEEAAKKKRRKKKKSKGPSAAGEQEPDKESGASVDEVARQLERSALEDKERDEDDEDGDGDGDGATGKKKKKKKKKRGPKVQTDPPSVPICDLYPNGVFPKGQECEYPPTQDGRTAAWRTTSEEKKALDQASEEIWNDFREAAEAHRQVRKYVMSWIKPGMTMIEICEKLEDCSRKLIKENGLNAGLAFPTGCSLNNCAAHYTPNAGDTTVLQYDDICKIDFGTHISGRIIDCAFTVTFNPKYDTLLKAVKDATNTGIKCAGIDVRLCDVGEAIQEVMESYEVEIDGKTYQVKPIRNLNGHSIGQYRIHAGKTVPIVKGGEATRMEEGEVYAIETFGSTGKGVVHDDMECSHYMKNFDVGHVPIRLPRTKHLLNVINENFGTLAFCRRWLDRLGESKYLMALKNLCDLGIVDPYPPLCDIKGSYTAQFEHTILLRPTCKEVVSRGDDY

With Brc1ccc(/C=C/c2nnc(-c3ccc4c(c3)OCCO4)o2)cc1 the IC50 (HUVEC [1]) was 22.3 µM and the CC50 at 24 h [2] was 491 µM.

Cc1cccc(/C=C/c2nnc(-c3ccc4c(c3)OCCO4)o2)c1 gave an IC50 (HUVEC [1]) of 40.6 µM and a CC50 at 24 h [2] of 201 µM.

With Fc1ccc(/C=C/c2nnc(-c3ccc4c(c3)OCCO4)o2)cc1 the IC50 (HUVEC [1]) was 4.96 µM and the CC50 at 24 h [2] was 325 µM.

Compound Brc1cccc(/C=C/c2nnc(-c3ccc4c(c3)OCCO4)o2)c1 has an IC50 (HUVEC [1]) of 13.5 µM and a CC50 at 24 h [2] of 322 µM.

For Cc1ccc(/C=C/c2nnc(-c3ccc4c(c3)OCCO4)o2)cc1, the IC50 (HUVEC [1]) was 45.2 µM and the CC50 at 24 h [2] was 265 µM.

In the case of COc1cccc(/C=C/c2nnc(-c3ccc4c(c3)OCCO4)o2)c1, the IC50 (HUVEC [1]) is reported as over 50 µM and the CC50 at 24 h [2] is reported as 332 µM.

With NNC(=O)c1ccc2c(c1)OCCO2 the IC50 (HUVEC [1]) was over 50 µM and the CC50 at 24 h [2] was 200 µM.

Compound Fc1ccccc1/C=C/c1nnc(-c2ccc3c(c2)OCCO3)o1 has an Activity (HUVEC [3]) of 1.07%, an Activity (HUVEC [4]) of 26.23% and an Activity (HUVEC [5]) of 16.4%. The Activity (HUVEC [6]) was 26.68%, the Activity (HUVEC [7]) was 25.61% and the Activity (HUVEC [8]) was 3.01%. For the same compound, the Activity (HUVEC [9]) was 2.69%, the Activity (HUVEC [10]) was 30.26% and the Activity (HUVEC [11]) was 31.26%. The Activity (HUVEC [12]) was 14.01%, the viability at 0.5 µM (HUVEC [13]) was 63.5% and the viability at 2 µM (HUVEC [14]) was 49.3%. The viability at 4 µM (HUVEC [15]) was 39.5%, the Activity (HUVEC [16]) was “Dose-dependent effect” and the IC50 (HUVEC [1]) was 1.16 µM. For the same compound, the CC50 at 24 h [2] was 402 µM, the Activity (HUVEC [17]) was 5.22% and the Activity (HUVEC [18]) was 8.64%. It also gave a viability at 1 µM (HUVEC [19]) of 56.6%.

With Clc1ccccc1/C=C/c1nnc(-c2ccc3c(c2)OCCO3)o1 the IC50 (HUVEC [1]) was 7.71 µM and the CC50 at 24 h [2] was 368 µM.

With Fc1cccc(/C=C/c2nnc(-c3ccc4c(c3)OCCO4)o2)c1 the IC50 (HUVEC [1]) was 3.53 µM and the CC50 at 24 h [2] was 295 µM.

With C(=C\c1nnc(-c2ccc3c(c2)OCCO3)o1)/c1ccccc1 the IC50 (HUVEC [1]) was over 50 µM and the CC50 at 24 h [2] was 209 µM.

Clc1ccc(/C=C/c2nnc(-c3ccc4c(c3)OCCO4)o2)cc1 showed an IC50 (HUVEC [1]) of 8.03 µM and a CC50 at 24 h [2] of 312 µM.

With Cc1ccccc1/C=C/c1nnc(-c2ccc3c(c2)OCCO3)o1 the IC50 (HUVEC [1]) was 40.5 µM and the CC50 at 24 h [2] was 356 µM.

For CO[C@@H]1[C@H](OC(=O)NC(=O)CCl)CC[C@]2(CO2)[C@H]1[C@@]1(C)O[C@@H]1CC=C(C)C [O-CHLOROACETYLCARBAMOYLFUMAGILLOL], the IC50 [20] was 1320 nM and the IC50 (HUVEC [1]) was 1.96 µM.

Brc1ccccc1/C=C/c1nnc(-c2ccc3c(c2)OCCO3)o1 showed an IC50 (HUVEC [1]) of 8.89 µM and a CC50 at 24 h [2] of 287 µM.

Compound O=[N+]([O-])c1cccc(/C=C/c2nnc(-c3ccc4c(c3)OCCO4)o2)c1 has an IC50 (HUVEC [1]) of 30.1 µM and a CC50 at 24 h [2] of 309 µM.

For O=[N+]([O-])c1ccccc1/C=C/c1nnc(-c2ccc3c(c2)OCCO3)o1, the IC50 (HUVEC [1]) was 25 µM and the CC50 at 24 h [2] was 323 µM.

Work on O=[N+]([O-])c1ccc(/C=C/c2nnc(-c3ccc4c(c3)OCCO4)o2)cc1 yielded an IC50 (HUVEC [1]) of 32.1 µM and a CC50 at 24 h [2] of 299 µM.

Compound COc1ccc(/C=C/c2nnc(-c3ccc4c(c3)OCCO4)o2)cc1 has an IC50 (HUVEC [1]) of over 50 µM and a CC50 at 24 h [2] of 312 µM.
